# Columns and labels:
# [1] = tested on: α-rhamnosidase; assay: Enzymatic hydrolysis of the muscat glycosidic extract by α-rhamnosidase (GC); format: biochemical; conditions: 0.15 nkat, 40° C., 16 h
# Description: (§1) 40 μl of glycosidic extract and 60 μl of a solution of Glc-pNP (internal standard) at a concentration of 50 mg/1 in ethyl acetate are introduced into a suitable flask. The mixture is taken to dryness at 40° C. with a stream of nitrogen. 40 μl of the silylating reagent (Tri-sil, Pierce, Rockford, Ill., U.S.A.) are then introduced; the flask is sealed and maintained at 40° C. for 20 minutes. After rapid cooling, the silylated sample is then ready for analysis by GC.
# (§2) The apparatus used consists of a Series 30C gas chromatograph, an "on-column" injector (injected volume 0.5 μl) and a flame ionization detector (Girdel, France). A thin film (0.20 μm) of an OV-1 (Girdel) apolar silicone phase is grafted onto the inner wall of the capillary column ([…].). The oven temperature is programmed from 125 to 305° C. at the rate of 5° C./minute, then maintained at 305° C. for 15 minutes. Finally, the detector temperature is set at 300° C. and hydrogen is used as the carrier gas at a pressure of 120 kPa.
# (§3) The experimental protocols for the enzymatic hydrolysis on the glycosidic extract are collated in Table 3. […]
# [2] = tested on: α-arabinosidase; assay: Enzymatic hydrolysis of the muscat glycosidic extract by α-arabinosidase (GC); format: biochemical
# Description: as §1, §2, §3
# [3] = tested on: β-glucosidase; assay: Second stage: consecutive action of β-glucosidase on the pre-incubated glycosidic extract (GC); format: biochemical, sweet almond; conditions: 0.15 nkat, 40°, 16 h
# Description: as §1, §2, §3
# [4] = Vinification of Muscat of Frontignan must with Klerzyme 200, free and bound aroma components by GC
# Description: After storing for 1.5 months at 20°-22° C., the free and bound aroma component fractions of each sample were extracted on an Amberlite XAD-2 column in 50 ml aliquots, and analyzed via GC.
# In another aspect, the action of an enzyme preparation (Klerzyme 200) containing β-apiosidase activity, in addition to α-rhamnosidase, α-arabinosidase and β-glucosidase activity, was studied during the fermentation of dry wines from the Muscat of Frontignan must. Klerzyme 200 (containing (per liter must) 2,770 nkat β-glucosidase, 704 nkat β-apiosidase, 276 nkat α-arabinosidase and 35 nkat α-rhamnosidase) and 10 g/hl of a wine yeast (Saccharomyces cerevisiae, type K1) were added to the must.
# [5] = tested on: β-glucosidase; conditions: cited from earlier work
# [6] = biological target: T1, β-glucosidase of Klerzyme 200 (Aspergillus niger, UniProt A2RAL4); assay: Hydrolysis of Hemicellulase-pretreated glycosidic extract by Klerzyme 200 (GC); format: biochemical; conditions: glycosidic extract pretreated with Hemicellulase
# T1 sequence (A2RAL4 20-860): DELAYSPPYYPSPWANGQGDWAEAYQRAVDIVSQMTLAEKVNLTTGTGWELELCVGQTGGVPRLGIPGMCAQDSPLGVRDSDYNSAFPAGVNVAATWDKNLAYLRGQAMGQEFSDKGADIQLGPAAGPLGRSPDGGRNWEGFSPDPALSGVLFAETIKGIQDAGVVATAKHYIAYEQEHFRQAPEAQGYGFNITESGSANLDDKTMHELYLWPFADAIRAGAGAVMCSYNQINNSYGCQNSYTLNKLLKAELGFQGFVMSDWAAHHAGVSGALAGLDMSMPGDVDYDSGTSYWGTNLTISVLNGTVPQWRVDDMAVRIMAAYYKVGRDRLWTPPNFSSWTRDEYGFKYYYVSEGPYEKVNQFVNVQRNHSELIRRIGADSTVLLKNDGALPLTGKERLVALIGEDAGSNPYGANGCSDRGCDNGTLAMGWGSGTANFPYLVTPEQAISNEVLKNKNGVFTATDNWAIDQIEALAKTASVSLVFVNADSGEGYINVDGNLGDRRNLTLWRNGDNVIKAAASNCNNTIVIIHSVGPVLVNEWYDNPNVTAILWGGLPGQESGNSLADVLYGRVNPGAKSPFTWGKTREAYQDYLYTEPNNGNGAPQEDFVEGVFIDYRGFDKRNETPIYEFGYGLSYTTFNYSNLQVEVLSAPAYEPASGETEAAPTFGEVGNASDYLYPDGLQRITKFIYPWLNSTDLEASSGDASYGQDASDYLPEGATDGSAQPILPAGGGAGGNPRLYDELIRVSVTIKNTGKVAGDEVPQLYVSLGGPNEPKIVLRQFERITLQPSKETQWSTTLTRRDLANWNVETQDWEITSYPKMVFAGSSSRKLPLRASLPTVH
# From the text: In another aspect, the action of the β-apiosidase on a glycosidic extract (FIG. 11A) was studied after the action of the Hemicellulase preparation (containing α-rhamnosidase, α-arabinosidase and β-glucosidase activities) on this extract. The Hemicellulase preparation eliminated the rhamnosyl- and arabinosylglucosides (FIG. 11B). Afterwards, the apiosylglucosides remaining were subjected to the hydrolytic action of the β-apiosidase and β-glucosidase of Klerzyme 200 (FIG. 11C). […] This is attributable to the weak affinity of the β-glucosidase of Klerzyme 200, vis-a-vis the linalyl glucosides.
compound,measurement,setting,value
"C=CC(C)(CCC=C(C)C)O[C@@H]1O[C@H](CO)[C@@H](O)[C@H](O)[C@H]1O (stereo partly drawn) [Glc-Lin, linalyl β-D-glucopyranoside]",Terpene monoglucosides liberated by α-rhamnosidase from a glycosidic extract,[1],9%
same,Terpene monoglucosides liberated by α-arabinosidase from a glycosidic extract,"[2]; 0.15 nkat, 40° C., 16 h",10%
same,% of monoglucosides (liberated by the two enzymes together),[2]; sum of α-arabinosidase and α-rhamnosidase,19%
same,"hydrolysis by consecutive action of β-glucosidase (second stage, GC)",[3]; listed as linalyl glucoside,incomplete hydrolysis
same,"hydrolysis by consecutive action of β-glucosidase (second stage, GC)",[3]; listed as linanyl monoglucoside,reduction
same,hydrolysis by Klerzyme 200 during vinification of dry wine,[4],not hydrolyzed
same,affinity of the sweet almond β-glucosidase for the substrate,[5],low affinity
same,hydrolysis by the β-glucosidase of Klerzyme 200,[6],not hydrolyzed

# Source: US5573926A, “Process for obtaining aroma components and aromas from their precursors of a glycosidic nature, and aroma components and aromas thereby obtained” (Gist-brocades, N.V., priority 1989, dated 1996)
